{"source": "patent US3948899A", "about": "“α-Cyanobenzylpiperazines and a process for producing the same” (Fuji Chemical Industry Co., Ltd., priority 1973, dated 1976)", "key": {"mongrel adult dogs [1]": {"tested_on": "mongrel adult dogs", "assay": "Effects on the work done by the left ventricle (thoractomized anesthetized dogs, i.v.)", "assay_type": "in vivo, dog", "procedure": "(§1) All experiments were conducted on male and female thoractomized mongrel adult dogs weighing about 10 Kg under anesthesia with pentobarbital sodium.\n(§2) Arterial blood pressure was measured by pressure transducer (Nippon Koden MPU-0.5) connected with the cannula inserted from exposed carotid artery into aorta. Aortic blood flow was determined by means of electromagnetic flow meter (Nippon Koden MF-5) mounted at an origin of aorta. Coronary sinus out flow and coronary sinus oxygen tension were assessed by means of electromagnetic flow meter (Nippon Koden MF-5) and Po2 Macro electrode (Beckmann Moder 160-C), respectively, using Morawitz cannulization technique. Heart rate was measured by cardiotachometer (Nippon Koden RT-2) synchronized with systolic blood pressure of aorta.\nThe work done by the left ventricle is calculated according to the following equation: […]"}, "[2]": {"details": "prior art; cited from earlier work"}, "mongrel adult dogs [3]": {"tested_on": "mongrel adult dogs", "assay": "Effects on heart rate (thoractomized anesthetized dogs, i.v.)", "assay_type": "in vivo, dog", "procedure": "as §1, §2"}, "mongrel adult dogs [4]": {"tested_on": "mongrel adult dogs", "assay": "Effects on aortic blood flow (thoractomized anesthetized dogs, i.v.)", "assay_type": "in vivo, dog", "procedure": "as §1, §2"}}, "note": "Structures can show the parent of a compound that is named as a salt.", "data": [{"smiles": "COc1ccc(CN2CCNCC2)c(OC)c1OC", "note": "[Vastarel F, 2,3,4 -trimethoxybenzylpiperazine dihydrochloride]", "values": [{"measurement": "Changes(%) of basal values, work of left ventricle", "setting": "mongrel adult dogs [1]; i.v. 0.2 mg/Kg, 1 min", "value": -1.0, "unit": "%"}, {"measurement": "Changes(%) of basal values, work of left ventricle", "setting": "mongrel adult dogs [1]; i.v. 0.2 mg/Kg, 5 min", "value": -2.5, "unit": "%"}, {"measurement": "Changes(%) of basal values, work of left ventricle", "setting": "mongrel adult dogs [1]; i.v. 0.2 mg/Kg, 10 min", "value": -1.5, "unit": "%"}, {"measurement": "Changes(%) of basal values, work of left ventricle", "setting": "mongrel adult dogs [1]; i.v. 0.2 mg/Kg, 15 min", "value": -1.0, "unit": "%"}, {"measurement": "Changes(%) of basal values, work of left ventricle", "setting": "mongrel adult dogs [1]; i.v. 0.2 mg/Kg, 20 min", "value": 0, "unit": "%"}, {"measurement": "Changes(%) of basal values, work of left ventricle", "setting": "mongrel adult dogs [1]; i.v. 0.2 mg/Kg, 25 min", "value": 0, "unit": "%"}, {"measurement": "Changes(%) of basal values, work of left ventricle", "setting": "mongrel adult dogs [1]; i.v. 0.2 mg/Kg, 30 min", "value": 0, "unit": "%"}, {"measurement": "Changes(%) of basal values, work of left ventricle", "setting": "mongrel adult dogs [1]; i.v. 0.2 mg/Kg, imm.", "value": -2.5, "unit": "%"}, {"measurement": "Changes(%) of basal values, work of left ventricle", "setting": "mongrel adult dogs [1]; i.v. 0.6 mg/Kg, 1 min", "value": -2.0, "unit": "%"}, {"measurement": "Changes(%) of basal values, work of left ventricle", "setting": "mongrel adult dogs [1]; i.v. 0.6 mg/Kg, 5 min", "value": -1.5, "unit": "%"}, {"measurement": "Changes(%) of basal values, work of left ventricle", "setting": "mongrel adult dogs [1]; i.v. 0.6 mg/Kg, 10 min", "value": -2.0, "unit": "%"}, {"measurement": "Changes(%) of basal values, work of left ventricle", "setting": "mongrel adult dogs [1]; i.v. 0.6 mg/Kg, 15 min", "value": -2.0, "unit": "%"}, {"measurement": "Changes(%) of basal values, work of left ventricle", "setting": "mongrel adult dogs [1]; i.v. 0.6 mg/Kg, 20 min", "value": -1.0, "unit": "%"}, {"measurement": "Changes(%) of basal values, work of left ventricle", "setting": "mongrel adult dogs [1]; i.v. 0.6 mg/Kg, 25 min", "value": -1.5, "unit": "%"}, {"measurement": "Changes(%) of basal values, work of left ventricle", "setting": "mongrel adult dogs [1]; i.v. 0.6 mg/Kg, 30 min", "value": 0, "unit": "%"}, {"measurement": "Changes(%) of basal values, work of left ventricle", "setting": "mongrel adult dogs [1]; i.v. 0.6 mg/Kg, imm.", "value": -4.5, "unit": "%"}, {"measurement": "Changes(%) of basal values, work of left ventricle", "setting": "mongrel adult dogs [1]; i.v. 2.0 mg/Kg, 1 min", "value": -35.0, "unit": "%"}, {"measurement": "Changes(%) of basal values, work of left ventricle", "setting": "mongrel adult dogs [1]; i.v. 2.0 mg/Kg, 5 min", "value": "+9.0%"}, {"measurement": "Changes(%) of basal values, work of left ventricle", "setting": "mongrel adult dogs [1]; i.v. 2.0 mg/Kg, 10 min", "value": "+21.5%"}, {"measurement": "Changes(%) of basal values, work of left ventricle", "setting": "mongrel adult dogs [1]; i.v. 2.0 mg/Kg, 15 min", "value": "+10.0%"}, {"measurement": "Changes(%) of basal values, work of left ventricle", "setting": "mongrel adult dogs [1]; i.v. 2.0 mg/Kg, 20 min", "value": "+4.0%"}, {"measurement": "Changes(%) of basal values, work of left ventricle", "setting": "mongrel adult dogs [1]; i.v. 2.0 mg/Kg, 25 min", "value": "+3.5%"}, {"measurement": "Changes(%) of basal values, work of left ventricle", "setting": "mongrel adult dogs [1]; i.v. 2.0 mg/Kg, 30 min", "value": "+3.0%"}, {"measurement": "Changes(%) of basal values, work of left ventricle", "setting": "mongrel adult dogs [1]; i.v. 2.0 mg/Kg, imm.", "value": -90.0, "unit": "%"}, {"measurement": "Effect on the heart, disadvantage (in words)", "setting": "[2]", "value": "depressant effect on the heart"}, {"measurement": "Changes(%) of basal values, heart rate", "setting": "mongrel adult dogs [3]; i.v. 0.2 mg/Kg, 1 min", "value": 0, "unit": "%"}, {"measurement": "Changes(%) of basal values, heart rate", "setting": "mongrel adult dogs [3]; i.v. 0.2 mg/Kg, 5 min", "value": -1.5, "unit": "%"}, {"measurement": "Changes(%) of basal values, heart rate", "setting": "mongrel adult dogs [3]; i.v. 0.2 mg/Kg, 10 min", "value": -1.0, "unit": "%"}, {"measurement": "Changes(%) of basal values, heart rate", "setting": "mongrel adult dogs [3]; i.v. 0.2 mg/Kg, 15 min", "value": 0, "unit": "%"}, {"measurement": "Changes(%) of basal values, heart rate", "setting": "mongrel adult dogs [3]; i.v. 0.2 mg/Kg, 20 min", "value": 0, "unit": "%"}, {"measurement": "Changes(%) of basal values, heart rate", "setting": "mongrel adult dogs [3]; i.v. 0.2 mg/Kg, 25 min", "value": 0, "unit": "%"}, {"measurement": "Changes(%) of basal values, heart rate", "setting": "mongrel adult dogs [3]; i.v. 0.2 mg/Kg, 30 min", "value": 0, "unit": "%"}, {"measurement": "Changes(%) of basal values, heart rate", "setting": "mongrel adult dogs [3]; i.v. 0.2 mg/Kg, imm.", "value": "+1.5%"}, {"measurement": "Changes(%) of basal values, heart rate", "setting": "mongrel adult dogs [3]; i.v. 0.6 mg/Kg, 1 min", "value": "+0.5%"}, {"measurement": "Changes(%) of basal values, heart rate", "setting": "mongrel adult dogs [3]; i.v. 0.6 mg/Kg, 5 min", "value": "+0.5%"}, {"measurement": "Changes(%) of basal values, heart rate", "setting": "mongrel adult dogs [3]; i.v. 0.6 mg/Kg, 10 min", "value": 0, "unit": "%"}, {"measurement": "Changes(%) of basal values, heart rate", "setting": "mongrel adult dogs [3]; i.v. 0.6 mg/Kg, 15 min", "value": -1.0, "unit": "%"}, {"measurement": "Changes(%) of basal values, heart rate", "setting": "mongrel adult dogs [3]; i.v. 0.6 mg/Kg, 20 min", "value": -1.0, "unit": "%"}, {"measurement": "Changes(%) of basal values, heart rate", "setting": "mongrel adult dogs [3]; i.v. 0.6 mg/Kg, 25 min", "value": -1.0, "unit": "%"}, {"measurement": "Changes(%) of basal values, heart rate", "setting": "mongrel adult dogs [3]; i.v. 0.6 mg/Kg, 30 min", "value": 0, "unit": "%"}, {"measurement": "Changes(%) of basal values, heart rate", "setting": "mongrel adult dogs [3]; i.v. 0.6 mg/Kg, imm.", "value": "+1.5%"}, {"measurement": "Changes(%) of basal values, heart rate", "setting": "mongrel adult dogs [3]; i.v. 2.0 mg/Kg, 1 min", "value": -2.0, "unit": "%"}, {"measurement": "Changes(%) of basal values, heart rate", "setting": "mongrel adult dogs [3]; i.v. 2.0 mg/Kg, 5 min", "value": -2.0, "unit": "%"}, {"measurement": "Changes(%) of basal values, heart rate", "setting": "mongrel adult dogs [3]; i.v. 2.0 mg/Kg, 10 min", "value": -1.5, "unit": "%"}, {"measurement": "Changes(%) of basal values, heart rate", "setting": "mongrel adult dogs [3]; i.v. 2.0 mg/Kg, 15 min", "value": -1.0, "unit": "%"}, {"measurement": "Changes(%) of basal values, heart rate", "setting": "mongrel adult dogs [3]; i.v. 2.0 mg/Kg, 20 min", "value": -1.5, "unit": "%"}, {"measurement": "Changes(%) of basal values, heart rate", "setting": "mongrel adult dogs [3]; i.v. 2.0 mg/Kg, 25 min", "value": -1.0, "unit": "%"}, {"measurement": "Changes(%) of basal values, heart rate", "setting": "mongrel adult dogs [3]; i.v. 2.0 mg/Kg, 30 min", "value": -1.5, "unit": "%"}, {"measurement": "Changes(%) of basal values, heart rate", "setting": "mongrel adult dogs [3]; i.v. 2.0 mg/Kg, imm.", "value": "+5.5%"}, {"measurement": "Changes(%) of basal values, aortic blood flow", "setting": "mongrel adult dogs [4]; i.v. 0.2 mg/Kg, 1 min", "value": 0, "unit": "%"}, {"measurement": "Changes(%) of basal values, aortic blood flow", "setting": "mongrel adult dogs [4]; i.v. 0.2 mg/Kg, 5 min", "value": 0, "unit": "%"}, {"measurement": "Changes(%) of basal values, aortic blood flow", "setting": "mongrel adult dogs [4]; i.v. 0.2 mg/Kg, 10 min", "value": 0, "unit": "%"}, {"measurement": "Changes(%) of basal values, aortic blood flow", "setting": "mongrel adult dogs [4]; i.v. 0.2 mg/Kg, 15 min", "value": 0, "unit": "%"}, {"measurement": "Changes(%) of basal values, aortic blood flow", "setting": "mongrel adult dogs [4]; i.v. 0.2 mg/Kg, 20 min", "value": 0, "unit": "%"}, {"measurement": "Changes(%) of basal values, aortic blood flow", "setting": "mongrel adult dogs [4]; i.v. 0.2 mg/Kg, 25 min", "value": 0, "unit": "%"}, {"measurement": "Changes(%) of basal values, aortic blood flow", "setting": "mongrel adult dogs [4]; i.v. 0.2 mg/Kg, 30 min", "value": 0, "unit": "%"}, {"measurement": "Changes(%) of basal values, aortic blood flow", "setting": "mongrel adult dogs [4]; i.v. 0.2 mg/Kg, imm.", "value": 0, "unit": "%"}, {"measurement": "Changes(%) of basal values, aortic blood flow", "setting": "mongrel adult dogs [4]; i.v. 0.6 mg/Kg, 1 min", "value": "+0.5%"}, {"measurement": "Changes(%) of basal values, aortic blood flow", "setting": "mongrel adult dogs [4]; i.v. 0.6 mg/Kg, 5 min", "value": 0, "unit": "%"}, {"measurement": "Changes(%) of basal values, aortic blood flow", "setting": "mongrel adult dogs [4]; i.v. 0.6 mg/Kg, 10 min", "value": -1.0, "unit": "%"}, {"measurement": "Changes(%) of basal values, aortic blood flow", "setting": "mongrel adult dogs [4]; i.v. 0.6 mg/Kg, 15 min", "value": -1.0, "unit": "%"}, {"measurement": "Changes(%) of basal values, aortic blood flow", "setting": "mongrel adult dogs [4]; i.v. 0.6 mg/Kg, 20 min", "value": -1.0, "unit": "%"}, {"measurement": "Changes(%) of basal values, aortic blood flow", "setting": "mongrel adult dogs [4]; i.v. 0.6 mg/Kg, 25 min", "value": -1.5, "unit": "%"}, {"measurement": "Changes(%) of basal values, aortic blood flow", "setting": "mongrel adult dogs [4]; i.v. 0.6 mg/Kg, 30 min", "value": 0, "unit": "%"}, {"measurement": "Changes(%) of basal values, aortic blood flow", "setting": "mongrel adult dogs [4]; i.v. 0.6 mg/Kg, imm.", "value": "+1.5%"}, {"measurement": "Changes(%) of basal values, aortic blood flow", "setting": "mongrel adult dogs [4]; i.v. 2.0 mg/Kg, 1 min", "value": 0, "unit": "%"}, {"measurement": "Changes(%) of basal values, aortic blood flow", "setting": "mongrel adult dogs [4]; i.v. 2.0 mg/Kg, 5 min", "value": "+11.0%"}, {"measurement": "Changes(%) of basal values, aortic blood flow", "setting": "mongrel adult dogs [4]; i.v. 2.0 mg/Kg, 10 min", "value": "+23.0%"}, {"measurement": "Changes(%) of basal values, aortic blood flow", "setting": "mongrel adult dogs [4]; i.v. 2.0 mg/Kg, 15 min", "value": "+10.0%"}, {"measurement": "Changes(%) of basal values, aortic blood flow", "setting": "mongrel adult dogs [4]; i.v. 2.0 mg/Kg, 20 min", "value": "+5.0%"}, {"measurement": "Changes(%) of basal values, aortic blood flow", "setting": "mongrel adult dogs [4]; i.v. 2.0 mg/Kg, 25 min", "value": "+6.0%"}, {"measurement": "Changes(%) of basal values, aortic blood flow", "setting": "mongrel adult dogs [4]; i.v. 2.0 mg/Kg, 30 min", "value": "+5.0%"}, {"measurement": "Changes(%) of basal values, aortic blood flow", "setting": "mongrel adult dogs [4]; i.v. 2.0 mg/Kg, imm.", "value": -78.0, "unit": "%"}]}]}
